Source: PMC4501720 (PLoS ONE, 2015)

tested on: whole blood cells of group 3 pigs vaccinated with BCG-pAg85A; assay type: cell-based, pigs (Sus scrofa domestica)

| Substance | animals with positive proliferative response to peptide |
| --- | --- |
| 131–150: synthetic overlapping peptide of mature Ag85A, aa 131–150 (SALTLAIYHPQQFVYAGAMS; UniProt P9WQP3 174-193, looked up, fragment) | 5/6 |

tested on: whole blood cells of group 3 pigs vaccinated with BCG-pAg85A; assay type: cell-based, pigs (Sus scrofa domestica); remark: another data set of the same source

| Substance | IFN-γ levels, BCG / pAg85A animal number 1 | IFN-γ levels, BCG / pAg85A animal number 2 | IFN-γ levels, BCG / pAg85A animal number 3 | IFN-γ levels, BCG / pAg85A animal number 4 [pg/mL] | IFN-γ levels, BCG / pAg85A animal number 5 | IFN-γ levels, BCG / pAg85A animal number 6 | group 3 animals recognizing the peptide (significant IFN-γ levels) |
| --- | --- | --- | --- | --- | --- | --- | --- |
| 131–150: synthetic overlapping peptide of mature Ag85A, aa 131–150 (SALTLAIYHPQQFVYAGAMS; UniProt P9WQP3 174-193, looked up, fragment) | 11,114 pg/mL | 1,754 pg/mL | 5,306 pg/mL | 868 | 11,072 pg/mL | 4,687 pg/mL | 6/6 and all six |
| 251–270: synthetic overlapping peptide of mature Ag85A, aa 251–270 (NGVFDFPDSGTHSWEYWGAQ; UniProt P9WQP3 294-313, looked up, fragment) | 410 pg/mL | 317 pg/mL | <5 pg/mL | 11 | 161 pg/mL | 163 pg/mL | – |
| 91–108: 18-mer peptide spanning the sequence of Ag85B aa 91–108, used instead of Ag85A 91–110 (GCQTYKWETFLTSELPQW; UniProt P9WQP1 131-148, looked up, fragment) | <5 pg/mL | 2,332 pg/mL | 2,377 pg/mL | 308 | 748 pg/mL | <5 pg/mL | – |
| 161–180: synthetic overlapping peptide of mature Ag85A, aa 161–180 (PTLIGLAMGDAGGYKASDMW; UniProt P9WQP3 204-223, looked up, fragment) | 1,501 pg/mL | <5 pg/mL | 556 pg/mL | 37 | 463 pg/mL | <5 pg/mL | – |
| 171–190: synthetic overlapping peptide of mature Ag85A, aa 171–190 (AGGYKASDMWGPKEDPAWQR; UniProt P9WQP3 214-233, looked up, fragment) | 328 pg/mL | <5 pg/mL | 1,066 pg/mL | 22 | 170 pg/mL | <5 pg/mL | – |
| 21–40: synthetic overlapping peptide of mature Ag85A, aa 21–40 (DIKVQFQSGGANSPALYLLD; UniProt P9WQP3 64-83, looked up, fragment) | <5 pg/mL | 681 pg/mL | <5 pg/mL | 128 | 142 pg/mL | <5 pg/mL | – |
| 275–294: synthetic overlapping peptide of mature Ag85A, aa 275–294 (KPDLQRALGATPNTGPAPQG; UniProt P9WQP3 318-337, looked up, fragment) | 57 pg/mL | <5 pg/mL | <5 pg/mL | <5 | 114 pg/mL | 77 pg/mL | – |
